The record followed here is patent US12233161B1, “Lipids and lipid nanoparticle formulations” (LONGUIDE BIOPHARMA CORPORATION, priority 2024, dated 2025).

A short description of data set [1]: Potential characterization of nucleic acid lipid nanoparticle preparations. The data set is classed as physicochemical. The note with it: DMG-PEG2000:DSPC:Chol:compound 1.40:11.15:38.95:48.50, N/P 30. The procedure: 20 μL of the nucleic acid lipid nanoparticle solution (containing about 0.04 mg/mL mRNA) was taken and added with 780 μL of ultrapure water, used a pipette tip to gently blow and mix, and the potential of the nanopreparation was detected by Malvern particle sizer (model ZEN3700).
27.5 μL nucleic acid lipid nanoparticle solution (containing about 0.04 mg/mL mRNA) was taken and added with 200 μL ultrapure water. A pipette tip was used to gently blow the sample and mix well. The particle size of the nanopreparation was detected by Malvern Dynamic Light Scattering Instrument (Malvern Instruments Ltd., ZEN3700, UK). After the detection, the sample was recovered to an EP tube, and 600 μL of ultrapure water was added, gently blown with a pipette tip, and the potential of the nanopreparation was measured by a Malvern particle size meter.

The test system of a further data set is mice. As to the kind of experiment: In vivo delivery of FLuc-mRNA lipid nanoparticles in mice, in vivo imaging (IVIS). An outline of the steps:
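Mice (n=3) received about 75 μL FLuc-mRNA LNP per mouse intramuscularly (rectus femoris), intravenously (tail vein), intraperitoneally or subcutaneously (back). After injection, D-luciferin (200 μL, 15 mg/mL) was given i.p. 10-15 min before IVIS imaging.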

Data set [2] is described as follows: Particle size and PDI of nucleic acid lipid nanoparticle preparations by dynamic light scattering. The class given is physicochemical. Summed up: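 Size read by DLS after diluting the LNP preparation (approx. 0.04 mg/mL mRNA) in ultrapure water with gentle pipette mixing. The same sample, recovered and diluted further with water, was then used for zeta potential measurement.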

Where [3] appears, read: DMG-PEG2000:DSPC:Chol:compound 1.40:11.15:38.95:48.50, N/P 30.
Setting [4] is: DMG-PEG2000:DSPC:Chol:Lipid 1.40:11.15:38.95:48.50, N/P 18, mRNA LNP.
[5] abbreviates: DMG-PEG2000:DSPC:Chol:Lipid 1.40:11.15:38.95:48.50, N/P 30, IM, whole body scan.
Setting [6] is: DMG-PEG2000:DSPC:Chol:Lipid 1.40:11.15:38.95:48.50, N/P 30, IV, body (whole body scan).
Setting [7] is: DMG-PEG2000:DSPC:Chol:Lipid 1.40:11.15:38.95:48.50, N/P 30, mRNA LNP.
Setting [8] is: DMG-PEG2000:DSPC:Chol:compound 1.40:11.15:38.95:48.50, N/P 20.
The mark [9] stands for this setting: DMG-PEG2000:DSPC:Chol:Lipid 1.40:11.15:38.95:48.50, N/P 30, IV, liver.
Where [10] appears, read: DMG-PEG2000:DSPC:Chol:Lipid 1.40:11.15:38.95:48.50, N/P 30, IV, lung.
[11] abbreviates: DMG-PEG2000:DSPC:Chol:Lipid 1.40:11.15:38.95:48.50, N/P 30, IV, spleen.
Setting [12] is: DMG-PEG2000:DSPC:Chol:Lipid 2.63:12.10:53.68:31.59, N/P 30, IV, liver.
Setting [13] is: DMG-PEG2000:DSPC:Chol:Lipid 2.63:12.10:53.68:31.59, N/P 30, IV, lung.
[14] abbreviates: DMG-PEG2000:DSPC:Chol:Lipid 2.63:12.10:53.68:31.59, N/P 30, IV, spleen.
The mark [15] stands for this setting: DMG-PEG2000:DSPC:Chol:Lipid 2.63:12.10:53.68:31.59, N/P 30, mRNA LNP.
The mark [16] stands for this setting: DMG-PEG2000:DSPC:Chol:Lipid 1.40:11.15:38.95:48.50, N/P 45, mRNA LNP.
The mark [17] stands for this setting: DMG-PEG2000:DSPC:Chol:Lipid 1.77:14.07:49.16:35.00, N/P 45, mRNA LNP.
Where [18] appears, read: DMG-PEG2000:DSPC:Chol:compound 1.40:11.15:38.95:48.50, N/P 40.

Regarding `CCCCCCCC/C=C\CCCCCCCCNC(=O)C(O)CN(CCCN(C)CCCN(CC(O)C(=O)NCCCCCCCC/C=C\CCCCCCCC)CC(O)C(=O)NCCCCCCCC/C=C\CCCCCCCC)CC(O)C(=O)NCCCCCCCC/C=C\CCCCCCCC` (stereo not drawn) [Compound L0317], in data set [1], the “Zeta potential (mV)” value came to 13.53 mV. Also, the IVIS turned out to be 1.53E+06 in the data set on mice (IM, DMG-PEG2000:DSPC:Chol:compound 1.40:11.15:38.95:48.50, N/P 30, Fluc-mRNA); 3.60E+07 with mice (IV, body, DMG-PEG2000:DSPC:Chol:compound 1.40:11.15:38.95:48.50, N/P 30, Fluc-mRNA); 2.78E+06 in the data set on mice (IV, liver, DMG-PEG2000:DSPC:Chol:compound 1.40:11.15:38.95:48.50, N/P 30, Fluc-mRNA); 7.03E+07 in the data set on mice (IV, lung, DMG-PEG2000:DSPC:Chol:compound 1.40:11.15:38.95:48.50, N/P 30, Fluc-mRNA); 1.51E+07 with mice (IV, spleen, DMG-PEG2000:DSPC:Chol:compound 1.40:11.15:38.95:48.50, N/P 30, Fluc-mRNA). In addition, the “% of organ targeting” value turned out to be 3.15% in the data set on mice (IV, liver, DMG-PEG2000:DSPC:Chol:compound 1.40:11.15:38.95:48.50, N/P 30); 79.76% in the data set with mice (IV, lung, DMG-PEG2000:DSPC:Chol:compound 1.40:11.15:38.95:48.50, N/P 30); 17.09% in the data set on mice (IV, spleen, DMG-PEG2000:DSPC:Chol:compound 1.40:11.15:38.95:48.50, N/P 30). The compound also showed a PDI in data set [2] (setting [3]) of 0.15. The “Particle size (nm)” value in data set [2] (setting [3]) was 117.83 nm.
Consider `CC/C=C\CCOCOCCCCCCOC(=O)C(O)CN(C)CCN(C)CCN(C)CC(O)C(=O)OCCCCCCOCOCC/C=C\CC` (stereo not drawn) [Compound L0284], for which, in the data set with mice (DMG-PEG2000:DSPC:Chol:Lipid 1.40:11.15:38.95:48.50, N/P 18, IM, whole body scan), the IVIS is given as 5.87 × 10^4. In the data set with mice (DMG-PEG2000:DSPC:Chol:Lipid 1.40:11.15:38.95:48.50, N/P 18, IV, whole body scan), the IVIS is 2.03 × 10^5. In data set [2] (setting [4]), the PDI was determined as 0.12 ± 0.02 and the Particle size is 150.97 ± 2.57 nm.
Consider `CCCCCCOCOCCCCCCOC(=O)C(O)CN(C)CCN(C)CCN(C)CC(O)C(=O)OCCCCCCOCOCCCCCC` (stereo not drawn) [Compound L0279], for which the IVIS in the data set on mice (setting [5]) is listed as 2.87 × 10^5. The IVIS with mice (setting [6]) was 5.19 × 10^5. In data set [2] (setting [7]), this compound displayed a PDI of 0.23 ± 0.02 and a Particle size of 150.80 ± 1.97 nm.
`CCCCCCOCOCCCCCCOC(=O)C(O)CN(CCOCCOCCN(CC(O)C(=O)OCCCCCCOCOCCCCCC)CC(O)C(=O)OCCCCCCOCOCCCCCC)CC(O)C(=O)OCCCCCCOCOCCCCCC` (stereo not drawn) [Compound L0329]: the IVIS in the data set on mice (IM, DMG-PEG2000:DSPC:Chol:compound 1.40:11.15:38.95:48.50, N/P 20, Fluc-mRNA) turned out to be 4.22E+06; in the data set with mice (IV, body, DMG-PEG2000:DSPC:Chol:compound 1.40:11.15:38.95:48.50, N/P 20, Fluc-mRNA), 3.09E+06; in the data set on mice (IV, liver, DMG-PEG2000:DSPC:Chol:compound 1.40:11.15:38.95:48.50, N/P 20, Fluc-mRNA) it was 5.34E+05; with mice (IV, lung, DMG-PEG2000:DSPC:Chol:compound 1.40:11.15:38.95:48.50, N/P 20, Fluc-mRNA), 1.11E+05; in the data set with mice (IV, spleen, DMG-PEG2000:DSPC:Chol:compound 1.40:11.15:38.95:48.50, N/P 20, Fluc-mRNA), 1.44E+06. The “% of organ targeting” value is recorded as 25.67% in the data set on mice (IV, liver, DMG-PEG2000:DSPC:Chol:compound 1.40:11.15:38.95:48.50, N/P 20); 5.35% in the data set with mice (IV, lung, DMG-PEG2000:DSPC:Chol:compound 1.40:11.15:38.95:48.50, N/P 20); 68.99% with mice (IV, spleen, DMG-PEG2000:DSPC:Chol:compound 1.40:11.15:38.95:48.50, N/P 20). The same compound gave a PDI in data set [2] (setting [8]) of 0.18. The “Particle size (nm)” value in data set [2] (setting [8]) is on record as 158.43 nm.
Regarding `CCCCCCCCCCCCNC(=O)C(O)CN(CCCCN(C)CCCCN(CC(O)C(=O)NCCCCCCCCCCCC)CC(O)C(=O)NCCCCCCCCCCCC)CC(O)C(=O)NCCCCCCCCCCCC` (stereo not drawn) [Compound L0283], the IVIS in the data set with mice (setting [5]) is 2.02 × 10^6; in the data set on mice (setting [6]) it was 1.94 × 10^8; in the data set with mice (setting [9]), 9.53 × 10^6; with mice (setting [10]), 1.24 × 10^9; in the data set on mice (setting [11]), 1.54 × 10^7; with mice (DMG-PEG2000:DSPC:Chol:Lipid 2.63:12.10:53.68:31.59, N/P 30, IV, body) it was 4.87 × 10^7. The IVIS in the data set with mice (setting [12]) is reported as 3.31 × 10^6; in the data set with mice (setting [13]), 1.48 × 10^7; in the data set with mice (setting [14]), 3.98 × 10^7. Besides, the “% of organ targeting” value stood at 0.75% in the data set with mice (setting [9]); 98.03% in the data set on mice (setting [10]); 1.22% in the data set on mice (setting [11]); 5.72% in the data set with mice (setting [12]); 25.56% with mice (setting [13]); 68.73% in the data set on mice (setting [14]). Besides, the “in vivo delivery efficiency as compared to the benchmark compound SM102” value with mice (certain formulations, Table 2) is reported as “superior in vivo delivery efficiency”. Also, the “tissue-targeting specificity (lung vs spleen depending on molar percentage of compound)” value with mice (certain formulations, Table 2) is reported as “strong tissue-targeting specificity”. The PDI in data set [2] (setting [7]) and in data set [2] (setting [15]) was 0.12 ± 0.01 throughout. In addition, the figures for the Particle size in data set [2] (setting [7]) and in data set [2] (setting [15]) were 99.68 ± 0.45 nm and 95.92 ± 0.22 nm, respectively.
In the case of `CCCCCCCCCCCCNC(=O)C(O)CN(CCCN(CC(O)C(=O)NCCCCCCCCCCCC)CC(O)C(=O)NCCCCCCCCCCCC)CCCN(CC(O)C(=O)NCCCCCCCCCCCC)CC(O)C(=O)NCCCCCCCCCCCC` (stereo not drawn) [Compound L0267], the IVIS in the data set on mice (DMG-PEG2000:DSPC:Chol:Lipid 1.40:11.15:38.95:48.50, N/P 45, IV, whole body scan) is 3.89 × 10^5; in the data set with mice (DMG-PEG2000:DSPC:Chol:Lipid 1.77:14.07:49.16:35.00, N/P 45, IM, whole body scan), 1.05 × 10^6. The PDI is 0.16 ± 0.02 in data set [2] (setting [16]) and 0.14 ± 0.01 in data set [2] (setting [17]). Also, the Particle size in data set [2] (setting [16]) is recorded as 148.37 ± 1.40 nm; in data set [2] (setting [17]) it was 121.47 ± 0.72 nm.
`CCCCCCCCCCCCNCC(O)CN(CCCNC(=O)CCN(CCCN(CCC(=O)NCCCN(CC(O)C(=O)NCCCCCCCCCCCC)CC(O)C(=O)NCCCCCCCCCCCC)CCC(=O)NCCCN(CC(O)C(=O)NCCCCCCCCCCCC)CC(O)C(=O)NCCCCCCCCCCCC)CCC(=O)NCCCN(CC(O)C(=O)NCCCCCCCCCCCC)CC(O)C(=O)NCCCCCCCCCCCC)CC(O)C(=O)NCCCCCCCCCCCC` (stereo not drawn) [Compound L0328]: the IVIS with mice (IM, DMG-PEG2000:DSPC:Chol:compound 1.40:11.15:38.95:48.50, N/P 40, Fluc-mRNA) was found to be 9.40E+05; in the data set with mice (IV, body, DMG-PEG2000:DSPC:Chol:compound 1.40:11.15:38.95:48.50, N/P 40, Fluc-mRNA), 3.55E+07; in the data set with mice (IV, liver, DMG-PEG2000:DSPC:Chol:compound 1.40:11.15:38.95:48.50, N/P 40, Fluc-mRNA), 5.62E+06; in the data set on mice (IV, lung, DMG-PEG2000:DSPC:Chol:compound 1.40:11.15:38.95:48.50, N/P 40, Fluc-mRNA) it was 1.69E+05; in the data set with mice (IV, spleen, DMG-PEG2000:DSPC:Chol:compound 1.40:11.15:38.95:48.50, N/P 40, Fluc-mRNA) it was 5.04E+06. The “% of organ targeting” value with mice (IV, liver, DMG-PEG2000:DSPC:Chol:compound 1.40:11.15:38.95:48.50, N/P 40) was 51.92%; in the data set on mice (IV, lung, DMG-PEG2000:DSPC:Chol:compound 1.40:11.15:38.95:48.50, N/P 40), 1.56%; in the data set with mice (IV, spleen, DMG-PEG2000:DSPC:Chol:compound 1.40:11.15:38.95:48.50, N/P 40), 46.52%. In data set [2] (setting [18]), the PDI is on record as 0.11. Also, in data set [2] (setting [18]), the “Particle size (nm)” value is recorded as 150.47 nm.
